Source: US12168650B2, “Crystalline forms of 3-(5-(2-hydroxy-2-methylpropoxy)-6-methylpyrazin-2-yl)-1H-indole-7-carbonitrile” (NIDO BIOSCIENCES, INC., priority 2022, dated 2024)

How the values were obtained:
[1] = Competitive equilibration experiments of anhydrates; conditions: at both 25° C. and 50° C.
Experimental: Relative stability of the anhydrate Forms A, C, H and J was investigated with competitive equilibration experiments.
Relative stability of the anhydrates Forms C, K and L was investigated with competitive equilibration experiments.
To determine relative stability of anhydrates, competitive equilibration experiments were conducted in different solvent systems.
About 2 mg of each anhydrate was added to 0.3-0.4 mL saturated solutions of selected solvents. Obtained suspensions were stirred at 25° C. for 3-10 days, respectively. Solid parts (wet cakes) were isolated by centrifugation filtration and investigated by XRPD.

[2] = Stability of Form C (Tables 5A-5F); format: physicochemical

SMILES: Cc1nc(-c2c[nH]c3c(C#N)cccc23)cnc1OCC(C)(C)O [Form C, 3-(5-(2-hydroxy-2-methylpropoxy)-6-methylpyrazin-2-yl)-1H-indole-7-carbonitrile]
- Relative thermodynamic stability of anhydrates [1]: thermodynamically stable anhydrate
- Impurities, HPLC: A ([2]; 25° C./60% RH, 01 Month): <0.05 area %
- Impurities, HPLC: B ([2]; 25° C./60% RH, 01 Month): <0.05 area %
- Impurities, HPLC: C ([2]; 25° C./60% RH, 01 Month): <0.05 area %
- Impurities, HPLC: D ([2]; 25° C./60% RH, 01 Month): <0.05 area %
- Impurities, HPLC: RRT 1.07 ([2]; 25° C./60% RH, 01 Month): 0.71 area %
- Impurities, HPLC: SM1 ([2]; 25° C./60% RH, 01 Month): <0.05 area %
- Impurities, HPLC: SM2 ([2]; 25° C./60% RH, 01 Month): <0.05 area %
- Impurities, HPLC: Unidentified impurity ([2]; 25° C./60% RH, 01 Month): <0.05 area %
- Purity, HPLC ([2]; 25° C./60% RH, 01 Month): 99.3 area %
- Water content ([2]; 25° C./60% RH, 01 Month): <0.05 wt %
- Impurities, HPLC: A ([2]; 25° C./60% RH, 03 Month): <0.05 area %
- Impurities, HPLC: B ([2]; 25° C./60% RH, 03 Month): <0.05 area %
- Impurities, HPLC: C ([2]; 25° C./60% RH, 03 Month): <0.05 area %
- Impurities, HPLC: D ([2]; 25° C./60% RH, 03 Month): <0.05 area %
- Impurities, HPLC: RRT 1.07 ([2]; 25° C./60% RH, 03 Month): 0.77 area %
- Impurities, HPLC: SM1 ([2]; 25° C./60% RH, 03 Month): <0.05 area %
- Impurities, HPLC: SM2 ([2]; 25° C./60% RH, 03 Month): <0.05 area %
- Impurities, HPLC: Unidentified impurity ([2]; 25° C./60% RH, 03 Month): <0.05 area %
- Purity, HPLC ([2]; 25° C./60% RH, 03 Month): 99.2 area %
- Water content ([2]; 25° C./60% RH, 03 Month): <0.05 wt %
- Impurities, HPLC: A ([2]; 25° C./60% RH, 06 Month): <0.05 area %
- Impurities, HPLC: B ([2]; 25° C./60% RH, 06 Month): <0.05 area %
- Impurities, HPLC: C ([2]; 25° C./60% RH, 06 Month): <0.05 area %
- Impurities, HPLC: D ([2]; 25° C./60% RH, 06 Month): <0.05 area %
- Impurities, HPLC: RRT 1.07 ([2]; 25° C./60% RH, 06 Month): 0.73 area %
- Impurities, HPLC: SM1 ([2]; 25° C./60% RH, 06 Month): <0.05 area %
- Impurities, HPLC: SM2 ([2]; 25° C./60% RH, 06 Month): <0.05 area %
- Impurities, HPLC: Unidentified impurity ([2]; 25° C./60% RH, 06 Month): <0.05 area %
- Purity, HPLC ([2]; 25° C./60% RH, 06 Month): 99.3 area %
- Water content ([2]; 25° C./60% RH, 06 Month): <0.05 wt %
- Assay, HPLC ([2]; 25° C./60% RH, 09 Month): 99.4 wt %
- Impurities, HPLC: A ([2]; 25° C./60% RH, 09 Month): <0.05 area %
- Impurities, HPLC: B ([2]; 25° C./60% RH, 09 Month): <0.05 area %
- Impurities, HPLC: C ([2]; 25° C./60% RH, 09 Month): <0.05 area %
- Impurities, HPLC: D ([2]; 25° C./60% RH, 09 Month): <0.05 area %
- Impurities, HPLC: RRT 1.07 ([2]; 25° C./60% RH, 09 Month): 0.72 area %
- Impurities, HPLC: SM1 ([2]; 25° C./60% RH, 09 Month): <0.05 area %
- Impurities, HPLC: SM2 ([2]; 25° C./60% RH, 09 Month): <0.05 area %
- Impurities, HPLC: Unidentified impurity ([2]; 25° C./60% RH, 09 Month): <0.05 area %
- Purity, HPLC ([2]; 25° C./60% RH, 09 Month): 99.3 area %
- Water content ([2]; 25° C./60% RH, 09 Month): <0.05 wt %
- Assay, HPLC ([2]; 25° C./60% RH, 12 Month): 99.4 wt %
- Impurities, HPLC: A ([2]; 25° C./60% RH, 12 Month): <0.05 area %
- Impurities, HPLC: B ([2]; 25° C./60% RH, 12 Month): <0.05 area %
- Impurities, HPLC: C ([2]; 25° C./60% RH, 12 Month): <0.05 area %
- Impurities, HPLC: D ([2]; 25° C./60% RH, 12 Month): <0.05 area %
- Impurities, HPLC: RRT 1.07 ([2]; 25° C./60% RH, 12 Month): 0.74 area %
- Impurities, HPLC: SM1 ([2]; 25° C./60% RH, 12 Month): <0.05 area %
- Impurities, HPLC: SM2 ([2]; 25° C./60% RH, 12 Month): <0.05 area %
- Impurities, HPLC: Unidentified impurity ([2]; 25° C./60% RH, 12 Month): <0.05 area %
- Purity, HPLC ([2]; 25° C./60% RH, 12 Month): 99.3 area %
- Water content ([2]; 25° C./60% RH, 12 Month): <0.05 wt %
- Impurities, HPLC: A ([2]; 25° C./60% RH, Initial): <0.05 area %
- Impurities, HPLC: B ([2]; 25° C./60% RH, Initial): <0.05 area %
- Impurities, HPLC: C ([2]; 25° C./60% RH, Initial): <0.05 area %
- Impurities, HPLC: D ([2]; 25° C./60% RH, Initial): <0.05 area %
- Impurities, HPLC: RRT 1.07 ([2]; 25° C./60% RH, Initial): 0.77 area %
- Impurities, HPLC: SM1 ([2]; 25° C./60% RH, Initial): <0.05 area %
- Impurities, HPLC: SM2 ([2]; 25° C./60% RH, Initial): <0.05 area %
- Impurities, HPLC: Unidentified impurity ([2]; 25° C./60% RH, Initial): <0.05 area %
- Purity, HPLC ([2]; 25° C./60% RH, Initial): 99.2 area %
- Water content ([2]; 25° C./60% RH, Initial): <0.05 wt %
- Assay, HPLC ([2]; 40° C./75% RH, 01 Month): 99.7 wt %
- Impurities, HPLC: A ([2]; 40° C./75% RH, 01 Month): <0.05 area %
- Impurities, HPLC: B ([2]; 40° C./75% RH, 01 Month): <0.05 area %
- Impurities, HPLC: C ([2]; 40° C./75% RH, 01 Month): <0.05 area %
- Impurities, HPLC: D ([2]; 40° C./75% RH, 01 Month): <0.05 area %
- Impurities, HPLC: RRT 1.07 ([2]; 40° C./75% RH, 01 Month): 0.70 area %
- Impurities, HPLC: SM1 ([2]; 40° C./75% RH, 01 Month): <0.05 area %
- Impurities, HPLC: SM2 ([2]; 40° C./75% RH, 01 Month): <0.05 area %
- Impurities, HPLC: Unidentified impurity ([2]; 40° C./75% RH, 01 Month): <0.05 area %
- Purity, HPLC ([2]; 40° C./75% RH, 01 Month): 99.3 area %
- Water content ([2]; 40° C./75% RH, 01 Month): <0.05 wt %
- Assay, HPLC ([2]; 40° C./75% RH, 03 Month): 98.7 wt %
- Impurities, HPLC: A ([2]; 40° C./75% RH, 03 Month): <0.05 area %
- Impurities, HPLC: B ([2]; 40° C./75% RH, 03 Month): <0.05 area %
- Impurities, HPLC: C ([2]; 40° C./75% RH, 03 Month): <0.05 area %
- Impurities, HPLC: D ([2]; 40° C./75% RH, 03 Month): <0.05 area %
- Impurities, HPLC: RRT 1.07 ([2]; 40° C./75% RH, 03 Month): 0.77 area %
- Impurities, HPLC: SM1 ([2]; 40° C./75% RH, 03 Month): <0.05 area %
- Impurities, HPLC: SM2 ([2]; 40° C./75% RH, 03 Month): <0.05 area %
- Impurities, HPLC: Unidentified impurity ([2]; 40° C./75% RH, 03 Month): <0.05 area %
- Purity, HPLC ([2]; 40° C./75% RH, 03 Month): 99.2 area %
- Water content ([2]; 40° C./75% RH, 03 Month): <0.05 wt %
- Assay, HPLC ([2]; 40° C./75% RH, 06 Month): 99.1 wt %
- Impurities, HPLC: A ([2]; 40° C./75% RH, 06 Month): <0.05 area %
- Impurities, HPLC: B ([2]; 40° C./75% RH, 06 Month): <0.05 area %
- Impurities, HPLC: C ([2]; 40° C./75% RH, 06 Month): <0.05 area %
- Impurities, HPLC: D ([2]; 40° C./75% RH, 06 Month): <0.05 area %
- Impurities, HPLC: RRT 1.07 ([2]; 40° C./75% RH, 06 Month): 0.73 area %
- Impurities, HPLC: SM1 ([2]; 40° C./75% RH, 06 Month): <0.05 area %
- Impurities, HPLC: SM2 ([2]; 40° C./75% RH, 06 Month): <0.05 area %
- Impurities, HPLC: Unidentified impurity ([2]; 40° C./75% RH, 06 Month): <0.05 area %
- Purity, HPLC ([2]; 40° C./75% RH, 06 Month): 99.3 area %
- Water content ([2]; 40° C./75% RH, 06 Month): <0.05 wt %
- Assay, HPLC ([2]; 40° C./75% RH, Initial): 99.4 wt %
- Impurities, HPLC: A ([2]; 40° C./75% RH, Initial): <0.05 area %
- Impurities, HPLC: B ([2]; 40° C./75% RH, Initial): <0.05 area %
- Impurities, HPLC: C ([2]; 40° C./75% RH, Initial): <0.05 area %
- Impurities, HPLC: D ([2]; 40° C./75% RH, Initial): <0.05 area %
- Impurities, HPLC: RRT 1.07 ([2]; 40° C./75% RH, Initial): 0.77 area %
- Impurities, HPLC: SM1 ([2]; 40° C./75% RH, Initial): <0.05 area %
- Impurities, HPLC: SM2 ([2]; 40° C./75% RH, Initial): <0.05 area %
- Impurities, HPLC: Unidentified impurity ([2]; 40° C./75% RH, Initial): <0.05 area %
- Purity, HPLC ([2]; 40° C./75% RH, Initial): 99.2 area %
- Water content ([2]; 40° C./75% RH, Initial): <0.05 wt %
- Stability ([2]; conditions where the temperature and relative humidity are altered): stable
